Measured values: patent US4327114A, “Substituted 1,8-dihydroxy-9-(10H)anthracenones” (Boehringer Ingelheim GmbH, priority 1980, dated 1982)
One block for each compound: values may come before it.

Assays:
skin [1] = conditions: literature or prior use; cited from earlier work
[2] = biological target: glucose-6-phosphate-dihydrogenase; experiment: Inhibition of glucose-6-phosphate-dihydrogenase after 120 minutes incubation; type: biochemical; conditions: 37° C., pH 7.6, REED and MUENCH
Procedure: The inhibiting effect upon enzymes was determined by measurement of the inhibition of glucose-6-phosphate-dihydrogenase.
The following equilibrium was observed: [drawing 5] (NADP-nicotinamide-adenine-dinucleotide-phosphate). The rate of formation of NADPH is a measure of the enzyme activity; it can be measured by means of the increase in extinction at […] per unit of time.
0.025 ml of glucose-6-phosphate-dihydrogenase were diluted to 10 ml with distilled water (Solution I). 100 mg of nicotinamide-adenine-dinucleotide-phosphate were dissolved in 13 ml of distilled water (Solution II). 47.2 mg of glucose-6-phosphate were dissolved in another 10 ml of distilled water (Solution III). Besides this, a buffer solution (Solution IV) was prepared as follows:
0.28 gm of triethanolamine hydrochloride and 1.461 gm of ethylene-diamine tetraacetic acid disodium salt were dissolved in 1 liter of distilled water, and the solution was adjusted to pH 7.6 with sodium hydroxide. The substance to be tested was dissolved in dimethyl formamide or ethanol (Solution V). Tested end-concentrations: 25, 12.5, 6.25, 3.125, 1.56 and 0.78 μg/ml.
A mixture of 0.1 ml of Solution I, 0.1 ml of Solution II, 2.67 ml of Solution IV and 0.03 ml of Solution V was kept at 37° C. for 120 minutes. After addition of 0.1 ml of Solution III and thorough mixing, the change in extinction was measured photometrically at 366 nm over 3 minutes. The inhibition values were calculated from the average values of 3 measurements (as change of extinction per minute), compared to controls to which the pure solvent was added as inhibitor solution. The ED50 was calculated according to the method of REED and MUENCH from the inhibiting values of the different concentrations. The following table contains the values thus determined: […]

[3] = tested on: skin (forearms of volunteer human test subjects); experiment: Orienting skin compatibility in humans (ointments on forearm); type: in vivo; conditions: 0.44% ointment, 16 hours, doubled to 0.88% after 3 days if no reaction
Procedure: Ointments, each containing individually 0.44% of compounds […] and K were applied to the forearms of volunteer human test subjects, covered with bandage gauze and allowed to remain on the skin for 16 hours. After 16 hours the ointments were washed off with soap solution, and the skin irritation and discoloration, if any, were evaluated visually and photographed. Then, the test ointments were again administered and allowed to remain on the skin until the next day. Again, the reactions were evaluated and a new treatment was started.

[4] = Acute toxicity in the mouse; type: in vivo; conditions: in vivo, ip, within 14 days
Procedure: (§1) The acute toxicity was determined in the mouse and in the rat. Determined was the LD50, i.e. the dose after administration of which 50% of the animals died within 14 days, or it was determined how many of the 10 treated animals died within the period of observation.

mouse = experiment: Acute toxicity in the mouse; type: in vivo
Procedure: as §1

skin of guinea pigs = experiment: Skin compatibility test on guinea pigs; type: in vivo, guinea pig (Perbright White strain); conditions: for Sum of the reactions divided by the number of animals: score 0 no irritation to 3 very strong erythema; for skin compatibility compared with compound A: Table 3
Procedure: Guinea pigs of the Perbright White strain, with a body weight of about 350 gm, were fed with standard guinea pig feed (Altromin 3022) and water ad lib.
During the test, the animals were kept in single cages. The test substances, which were dissolved in a well compatible solvent, were applied to the skin of the animals (diameter of the test area 3.5 cm) daily for 3 weeks, from Monday to Friday. The animals were shaved each Monday, Wednesday and Friday in the early morning, the treatment with the test substances was performed in the early afternoon. Immediately before administration of the substance, the skin reaction was tested. The evaluation was carried out visually, and erythema, edema, and mycosis of the skin were considered.
The following evaluation was made:
2: strong erythema with beginning edema
3: very strong erythema with edema or beginning necrosis.
The numerical sum of the reactions was used for the total evaluation of a group of animals.

rat = experiment: Acute toxicity in the rat; type: in vivo; conditions: 2000 mg/kg
Procedure: as §1

[5] = Acute toxicity in the rat; type: in vivo; conditions: in vivo, ip, within 14 days
Procedure: as §1

guinea pigs = experiment: Sensitizing activity on guinea pigs; type: in vivo, guinea pig (Perbright White strain); conditions: 1:10 to 1:50 of the original concentrations, behind the ears
Procedure: The sensitizing activity was tested 2 weeks after the skin compatibility test with 1:10 to 1:50 of the originally used concentrations behind the ears.

skin [6] = experiment: Skin compatibility under occlusion, method of Mustakallio; type: in vivo; conditions: 4 to 128 mmols in white vaseline, after 4 and after 16 hours of occlusion
Procedure: In a further test, according to the method of Mustakallio, compound A was applied at concentrations of 1, 2, 4, 8, 16, 32 mmols in white vaseline and allowed to remain on the skin for 4 hours under occlusion. Compounds C and K, however, were applied at concentrations of 4, 8, 16, 32, 64, 128 mmols, also in white vaseline, and allowed to remain on the skin for 16 hours under occlusion. […] This means that the novel compounds are more compatible by a factor of at least 64.

[7] = Natural color of the substance (UV-absorption, FIG. 1); type: physicochemical; conditions: shortwave portion of visible light, beginning at 380 nm
Text: Topically administrable substances which are colored are undesirable for cosmetic reasons and also because the lingerie may become soiled. […] This is also expressed by the optic impression of the preparations. […] This is a further advantage compared with dithranol.

[8] = Penetration and metabolization in the skin in vitro; type: in vitro ADME, pig; conditions: thin-layer chromatography; for penetration into the layers of the skin: same carriers
psoriasis = conditions: cited from earlier work; for antipsoriatic activity: literature or prior use

SMILES: CC(=O)C1c2cccc(O)c2C(=O)c2c(O)cccc21 [10-Acetyl-dithranol]
- skin irritation and/or discoloration (skin [1]): discolored and irritated the skin at concentrations from 0.5% even more than the starting compound

SMILES: CC(C)c1ccc(O)c2c1Cc1cccc(O)c1C2=O [Compound F, 1,8-Dihydroxy-4-isopropyl-9-(10H)anthracenone]
- ED50, inhibition of incubation after 120 minutes [2]: 5.35 µg/mL
- LD50 at 336 h [4]: 52 mg/kg
- Number of dead animals (mouse; p.o., 2000 mg/kg): 0/10
- Number of dead animals (mouse; sc., 2000 mg/kg): 0/10
- Sum of the reactions divided by the number of animals (skin of guinea pigs; 0.015%, end of 1st week): 0.085
- Sum of the reactions divided by the number of animals (skin of guinea pigs; 0.015%, end of 2nd week): 0.085
- Sum of the reactions divided by the number of animals (skin of guinea pigs; 0.015%, end of 3rd week): 0.085
- Sum of the reactions divided by the number of animals (skin of guinea pigs; 0.045%, end of 1st week): 0.085
- Sum of the reactions divided by the number of animals (skin of guinea pigs; 0.045%, end of 2nd week): 0.085
- Sum of the reactions divided by the number of animals (skin of guinea pigs; 0.045%, end of 3rd week): 0.085
- skin compatibility compared with compound A (skin of guinea pigs): considerably more skin-compatible than compound A
- Number of dead animals (rat; p.o.): 0/10
- Number of dead animals (rat; sc.): 0/10
- LD50 at 336 h [5]: 45 mg/kg
- sensitization (guinea pigs): no sensitization
- discoloration of the skin [3]: no skin irritation or discoloration of the skin
- skin irritation [3]: no skin irritation

SMILES: CC(C)(C)c1ccc2c(c1O)C(=O)c1c(ccc(C(C)(C)C)c1O)C2 [Compound K, 2,7-Di-tert. butyl-1,8-dihydroxy-9-(10H)anthracenone]
- skin irritations or discolorations (skin [6]): no skin irritations or discolorations could be observed
- ED50, inhibition of incubation after 120 minutes [2]: 7.77 µg/mL
- Number of dead animals (mouse; i.p., 1000 mg/kg): 0/10
- Number of dead animals (mouse; p.o., 4000 mg/kg): 0/10
- Number of dead animals (mouse; sc., 1000 mg/kg): 0/10
- Sum of the reactions divided by the number of animals (skin of guinea pigs; 0.03%, end of 1st week): 0.00
- Sum of the reactions divided by the number of animals (skin of guinea pigs; 0.03%, end of 2nd week): 0.042
- Sum of the reactions divided by the number of animals (skin of guinea pigs; 0.03%, end of 3rd week): 0.00
- skin compatibility compared with compound A (skin of guinea pigs): considerably more skin-compatible than compound A
- UV-absorption / yellow color [7]: significantly less UV-absorption
- penetration into the layers of the skin [8]: penetrate to an approximately equal extent
- metabolization in the skin [8]: metabolized in a similar manner
- sensitization (guinea pigs): no sensitization

SMILES: O=CCCC1(CCC=O)c2cccc(O)c2C(=O)c2c(O)cccc21 [bis-(formylethyl)-dithranol]
- antipsoriatic activity (psoriasis): did not exhibit any antipsoriatic activity
- skin irritation and/or discoloration (skin [1]): no irritation and discoloration

SMILES: CC(=O)Oc1cccc2cc3cccc(OC(C)=O)c3c(OC(C)=O)c12 [dithranol triacetate, 1,8,9-Triacetoxyanthracene]
- antipsoriatic activity (psoriasis): less active than dithranol
- therapeutic index (psoriasis; literature, compared with dithranol): a real improvement of the therapeutic index could not be obtained
- skin irritation and/or discoloration (skin [1]): less skin irritation

The next lines start with results.

- ED50, inhibition of incubation after 120 minutes [2]: 6.86 µg/mL
- discoloration of the skin [3]: skin discoloration similar to compound A
SMILES: Cc1cc(O)c2c(c1)Cc1cccc(O)c1C2=O [Compound B, 1,8-Dihydroxy-3-methyl-9-(10H)-anthracenone, reference compound]

- ED50, inhibition of incubation after 120 minutes [2]: 3.94 µg/mL
SMILES: O=C1c2c(O)cccc2Cc2ccc(C3CCCCC3)c(O)c21 [Compound I, 2-Cyclohexyl-1,8-dihydroxy-9-(10H)anthracenone]

- ED50, inhibition of incubation after 120 minutes [2]: 6.32 µg/mL
SMILES: CC(C)(C)c1ccc2c(c1O)C(=O)c1c(O)cccc1C2 [D, 2-tert. Butyl-1,8-dihydroxy-9-(10H)anthracenone]
- Sum of the reactions divided by the number of animals (skin of guinea pigs; 0.03%, end of 1st week): 0.083
- Sum of the reactions divided by the number of animals (skin of guinea pigs; 0.03%, end of 2nd week): 0.042
- Sum of the reactions divided by the number of animals (skin of guinea pigs; 0.03%, end of 3rd week): 0.00
- skin compatibility compared with compound A (skin of guinea pigs): considerably more skin-compatible than compound A
- sensitization (guinea pigs): no sensitization
- discoloration of the skin [3]: no skin irritation or discoloration of the skin
- skin irritation [3]: no skin irritation

- ED50, inhibition of incubation after 120 minutes [2]: 3.61 µg/mL
SMILES: CCCCC(C)c1ccc2c(c1O)C(=O)c1c(O)cccc1C2 (centres unmarked) [E, 2-(2-Hexyl)-1,8-dihydroxy-9-(10H)anthracenone]
- discoloration of the skin [3]: no skin irritation or discoloration of the skin
- skin irritation [3]: no skin irritation

- ED50, inhibition of incubation after 120 minutes [2]: 5.67 µg/mL
- metabolization in the skin [8]: metabolized in a similar manner
SMILES: CC(C)c1cc(C(C)C)c2c(c1O)C(=O)c1c(O)cccc1C2 [G, 1,8-Dihydroxy-2,4-diisopropyl-9-(10H)anthracenone]
- penetration into the layers of the skin [8]: penetrate to an approximately equal extent
- discoloration of the skin [3]: no skin irritation or discoloration of the skin
- skin irritation [3]: no skin irritation

- ED50, inhibition of incubation after 120 minutes [2]: 3.85 µg/mL
SMILES: O=C1c2c(O)cccc2Cc2c(Cl)ccc(O)c21 [H, 4-Chloro-1,8-dihydroxy-9-(10H)anthracenone]
